Measured values: patent US20220054524A1, “NEW CONJUGATED NUCLEIC ACID MOLECULES AND THEIR USES” (ONXEO, priority 2018, published 2022)

Assays:
Format in all cases: cell-based
MDA-MB-231 cells = experiment: Drug-induced DNA damage (γH2AX) by flow cytometry and immunofluorescence; details: MDA-MB-231, 5 μM, 48 h
Procedure: (§1) Cell cultures were performed with the triple negative breast cancer cell line MDA-MB-231. Cells were grown in complete L15 Leibovitz medium and maintained at 37° C. in a humidified atmosphere at 0% Co2.
For immunostaining, cells are seeded on cover slips (Menzel, Braunschweig, Germany) at a concentration of 5×10^5 cells and incubated at 37° C. during 1 day. Cells are then treated with olaparib (5 μM)+/−OX401 (5 μM). 48 h after treatment, cells are fixed for 20 min in 4% paraformaldehyde/Phosphate-Buffered Saline (PBS 1×), permeabilized in 0.5% Triton X-100 for 10 min, blocked with 2% bovine serum albumin/PBS 1× and incubated with primary antibody for 1 h at 4° C. All secondary antibodies were used at a dilution of 1/200 for 45 min at Room Temperature (RT), and DNA was stained with 4′, 6-diamidino-2-phenylindole (DAPI). […]
Cells were treated with OX401 (5 μM) or Olaparib (5 μM) for 48 hours and then fixed and permeabilized with cold (−20° C.) 70% ethanol for at least 2 hours. […] Fluorescence intensities were determined with a Guava EasyCyte cytometer (Luminex). Data were analyzed using FlowJo software (Tree Star, Calif.).

[1] = test system: homologous recombination repair pathway; experiment: Homologous recombination pathway activity (Rad51 foci); details: MDA-MB-231, olaparib 5 μM alone, 48 h
Procedure: as §1
For immunostaining, cells are seeded on cover slips (Menzel, Braunschweig, Germany) at a concentration of 5×10^5 cells and incubated at 37° C. during 1 day. Cells are then treated with olaparib (5 μM)+/−OX401 (5 μM). 48 h after treatment, cells are fixed for 20 min in 4% paraformaldehyde/Phosphate-Buffered Saline (PBS 1×), permeabilized in 0.5% Triton X-100 for 10 min, blocked with 2% bovine serum albumin/PBS 1× and incubated with primary antibody for 1 h at 4° C. All secondary antibodies were used at a dilution of 1/200 for 45 min at Room Temperature (RT), and DNA was stained with 4′, 6-diamidino-2-phenylindole (DAPI). The following antibodies were used: primary monoclonal mouse anti-phospho-H2AX (Millipore, Guyancourt, France), anti-Rad51 rabbit antibody (Merk Millipore, Darmstadt, Allemagne), secondary goat anti-mouse IgG conjugated with Alexa-633 (Molecular Probes, Eugene, Oreg., USA) and secondary goat anti-rabbit IgG conjugated with Alexa-488 (Molecular Probes, Eugene, Oreg., USA).

U937 cells = experiment: Selection of acquired resistance by repeated treatment cycles
Procedure: Cell cultures were performed with the lymphoma cell line U937. Cells were grown in complete RPMI medium supplemented with 10% FBS and 1% Penicillin/Streptomycin and maintained at 37° C. in a humidified atmosphere at 5% CO2. This cell line was chosen according to its high sensitivity to both OX401 and talazoparib. For repeated cycles of the treatment to select resistance, U937 cells were seeded at appropriate densities (2.10^5 cells/mL) and incubated 24 h at 37° C. before addition of the drug at doses corresponding to 10-20% survival compared to non-treated cells. Resistances were selected under 2 μM talazoparib or 1.5 μM OX401. Cells were harvested on day 4 after treatment, washed, and counted after staining with 0.4% trypan blue (Eve™ counting slides, NanoEnTek). After counting, cells were seeded in appropriate culture plates, and allowed to recover (drug free period) for 3 to 7 days. Another cycle of treatment/recovery was then started for up to 4 cycles.

U937 parental cells = experiment: XTT survival, U937 parental cells; details: Homo sapiens, U-937, 96 h, 4 days
Procedure: (§2) Cell cultures were performed with the lymphoma cell line U937. Cells were grown in complete RPMI medium supplemented with 10% FBS and 1% Penicillin/Streptomycin and maintained at 37° C. in a humidified atmosphere at 5% CO2. This cell line was chosen according to its high sensitivity to both OX401 and talazoparib. To assess the acquired resistances irreversibility, U937 parental or resistant cells were seeded in 96 well-plates (2.10^4 cells/well) and treated with increasing concentrations of talazoparib for 4 days. Following drug exposure, cell survival was measured using the XTT assay (Sigma Aldrich). Briefly, the XTT solution was added directly to each well containing cell culture and the cells incubated for 5 hours at 37° C. before reading the absorbance at 490 nm and 690 nm using a microplate reader (BMG Fluostar, Galaxy). Cell survival was calculated as the ratio of living treated cells to living mock-treated cells. The IC50 (which represents the dose at which 50% of the cells are viable) was calculated by a non-linear regression model using GraphPad Prism software (version 5.04) by plotting the percentage viability against the Log of the drug concentration on each cell line.

[2] = test system: Ta11, Ta12 and Ta13 resistant populations; experiment: XTT survival, talazoparib-resistant U937 populations; details: Homo sapiens, U-937, 96 h, 4 days
Procedure: as §2

Row | SMILES | γH2AX DSB biomarker (double-strand breaks accumulation) (MDA-MB-231 cells) | γH2AX and Rad51 foci [1] | Cell survival after the first cycle (U937 cells; U937, talazoparib 2 μM) | Cell growth during drug-free amplification periods (U937 cells; U937, talazoparib 2 μM or OX401 1.5 μM, cycles of treatment) | Cell survival after the forth cycle of treatment (U937 cells; U937, talazoparib 2 μM, 33 days after treatment start) | IC50 (U937 parental cells) | IC50 [2]
1 | O=C(c1cc(Cc2n[nH]c(=O)c3ccccc23)ccc1F)N1CCN(C(=O)C2CC2)CC1 [olaparib] | high phosphorylation of histone H2AX | accumulation of γH2AX Foci that co-localize with Rad51 foci | – | – | – | – | –
2 | Cn1ncnc1[C@H]1c2n[nH]c(=O)c3cc(F)cc(c23)N[C@@H]1c1ccc(F)cc1 [talazoparib] | – | – | 10% | recovered | more than 50% | 2000 nM | > 4000 nM
